One block for each compound: values may come before it.
Legend:
basilar artery = experiment: Remitting effect on a model of vasospasm after subarachnoid hemorrhage; assay type: in vivo, Mongrel cats; conditions: femoral vein
Procedure: Mongrel cats of either sex (3-5 cats per group) were anesthetized with pentobarbital sodium (60 mg/kg, sc) and tracheal cannulae were inserted, and the test was carried out under spontaneous respiration. Following transcervical, transclival approach, the canine basilar artery was exposed by opening the dura and arachnoid maters, using an operating microscope. 30 Minutes after the surgery, a mixture of an equal volume of blood and cerebrospinal fluid (CSF) (0.2 ml) preincubated under an aseptic condition (37° C., 6-7 days) was applied on the surface of canine basilar artery. At the same time, the test compound [dissolved in a mixture of ethanol, polyethylene glycol and distilled water (2:1:7, v/v/v), administration volume: 0.2 ml] or only vehicle was administered into the right femoral vein. After 10 minutes, the blood-CSF mixture was carefully removed and microphotographs of the canine basilar artery were taken with the passage of time, and the inside diameter of the artery was measured from the microphotographs.

vertebral artery of dog = experiment: Effect on blood flow of the vertebral artery of dog; assay type: in vivo, Mongrel dogs
Procedure: Mongrel dogs of either sex (5-10 dogs per group), weighing 8-18 kg, were anesthetized with pentobarbital sodium (35 mg/kg, ip) and an electromagnetic flowprobe was fitted to the right vertebral artery and the blood flow of the vertebral artery was measured by a flow meter. Polyethylene cannulae were inserted into the femoral artery for measurement of blood pressure and into the femoral vein or the duodenum (after celiotomy) for administration of test compounds respectively.
Test compounds were dissolved in a mixture of ethanol, polyethylene glycol and distilled water, and administered in a volume of 0.2 ml/kg (iv) or 0.5 ml/kg (id). Incidentally, dogs were fasted for 18 hours in case of intraduodenum administration.

[1] = test system: isolated canine basilar artery; experiment: Effect on isolated canine basilar artery (relaxation of KCl contraction); design: species or system mongrel dogs; conditions: Canis lupus familiaris; dose inducing 50% relaxation; contraction by 35 mM KCl; papaverine 0.1 mM = 100%; mean±standard error; read-out: ED50 (the source's name)
Procedure: Under pentobarbital sodium anesthesia (35 mg/kg, ip or 30 mg/kg, iv), the basilar arteries (outside diameter: 1.0-1.5 mm) were isolated from mongrel dogs (weighing 8-18 kg) of either sex (6 dogs per group) and cut spirally (width 1 mm×length 15-20 mm). The spiral strips were suspended in a Tyrode's solution aerating with a gas mixture of 95% oxygen and 5% carbon dioxide, and the resting tension was adjusted to 0.5 g. After 1 hour, 35 mM potassium chloride was added to the organ bath to contract the arteries. The cumulative concentrations of the test compound, dissolved in a mixture of ethanol, polyethylene glycol and distilled water, were then added. Finally 0.1 mM papaverine was given to determine maximum relaxation.

[2] = test system: ischemic cerebral cortex of rat; experiment: Effect on blood flow in ischemic cerebral cortex of rat; assay type: in vivo, Male Wistar rats; conditions: po; for Increase in Blood Flow (Time-course of Vasodilation in Cortex of Occlusion Side): 1 mg/kg
Procedure: Male Wistar rats (5 rats per group), weighing 229-300 g, were anesthetized with thiopental sodium (50 mg/kg, ip). A skin incision was made in the middle of the right external auditory canal and the orbit, and a craniectomy (diameter: 2-2.5 mm) was made, using a dental drill, in the middle of the foramen ovale and the foramen opticum. After the dura was opened, the middle cerebral artery was exposed and occluded by electrocauterization using bipolar cautery.
After closure of the surgical wound, aminobenzylpenicillin (200 mg/kg) was divisionally administered into the operated part and subcutaneously.
One week after the surgery, the rats were anesthetized with urethane (1.25 g/kg, sc) and cannulae for artificial respiration and for measurement of blood pressure were inserted into the trachea and into the right femoral artery respectively, and then a stomach tube for administration of test compounds was inserted into stomach. The rats were fixed to stereotactic head-holders and craniectomies (diameter: 0.5 mm) were made on both sides of parietal skull, and then electrodes for measurement of local cerebral blood flow were inserted into right and left cerebral cortex (A=5, L=±5.0, H=2).
The blood flows of the ischemic (occlusion side) and non-ischemic (non-occlusion side) cerebral cortex of the rats used in this test were 17.4±4.5 and 51.4±1.2 ml/brain 100 g/minute, respectively. Test Compounds were dissolved in 100% polyethylene glycol and administered orally in a volume of 1 ml/kg.
The blood flow was calculated according to the following calculating formula after obtaining a half life (t1/2) from the clearance curve. [formula] λ: partition coefficient of hydrogen gas between blood and tissues (=1.0)
t1/2: a half life of concentration of hydrogen gas in brain

[3] = test system: Production of Lipid Peroxide in cerebral mitochondria of rat; experiment: Effect on Production of Lipid Peroxide in cerebral mitochondria of rat; assay type: biochemical, male Wistar rats; conditions: 37° C., 1 hour
Procedure: Cerebral mitochondria of male Wistar rats were isolated and mixed with a mixture of ascorbic acid (100 μM), ferrous sulfate (10 μM), ferric sulfate (20 μM) and test compound, and the mixture was incubated at 37° C. for 1 hour. The amount of malondialdehyde produced in the incubated mixture was measured by thiobarbituric acid method [Shimada et al., Biochim. Biophy. Acta, vol. 489, pp 163-172 (1977)].

ischemic brain = conditions: Occluded rat, 1.0 mg/kg sc once a day for 3 days
Procedure: Test compounds (1.0 mg/kg) (dissolved in polyethylene glycol, administration volume: 1 ml/kg) or vehicle was administered sc once a day for 3 days beginning from the fifth day after the surgery. One hour after the last administration, the rats were frozen in liquid nitrogen and then the whole brains of the both side excluding the cerebellum were isolated separately. The right hemisphere was homogenized with ice-cooled 6% perchloric acid (20 times in volume), centrifuged (3000 r.p.m., 10 minutes at 4° C.) and then the supernatant was neutralized with 5M potassium carbonate.
After the neutralization, the supernatant was centrifuged again and the concentrations of adenosine triphosphate (ATP) and lactic acid included in the resulting supernatant were measured by enzymatic assay.

cerebral circulation = conditions: cited from earlier work
[4] = test system: rat with transient cerebral ischemia; conditions: cited from earlier work

EC50 [1]: 0.33 ± 0.04 nM
Compound: COC(=O)C1=C(C#N)NC(C)=C(C(=O)OC(C)C)C1c1cccc([N+](=O)[O-])c1 (stereo not drawn) [Dihydropyridine Compound A, Isopropyl ester of 6-cyano-5-methoxycarbonyl-2-methyl-4-(3-nitrophenyl)-1,4-dihydropyridine-3-carboxylic acid]
Time-course of Changes of the Diameter of the Artery (basilar artery; 10 μg/kg, 15 minutes): 17.0 ± 4.5%
Time-course of Changes of the Diameter of the Artery (basilar artery; 10 μg/kg, 30 minutes): 17.1 ± 4.6%
Time-course of Changes of the Diameter of the Artery (basilar artery; 10 μg/kg, 45 minutes): 18.3 ± 5.3%
Time-course of Changes of the Diameter of the Artery (basilar artery; 10 μg/kg, 60 minutes): 17.8 ± 3.8%
Time-course of Changes of the Diameter of the Artery (basilar artery; 10 μg/kg, 90 minutes): 15.5 ± 3.2%
Time-course of Changes of the Diameter of the Artery (basilar artery; 10 μg/kg, 120 minutes): 17.1 ± 5.1%
Time-course of Changes of the Diameter of the Artery (basilar artery; 100 μg/kg, 15 minutes): 16.6 ± 7.6%
Time-course of Changes of the Diameter of the Artery (basilar artery; 100 μg/kg, 30 minutes): 15.1 ± 5.1%
Time-course of Changes of the Diameter of the Artery (basilar artery; 100 μg/kg, 45 minutes): 25.9 ± 7.5%
Time-course of Changes of the Diameter of the Artery (basilar artery; 100 μg/kg, 60 minutes): 24.4 ± 7.5%
Time-course of Changes of the Diameter of the Artery (basilar artery; 100 μg/kg, 90 minutes): 21.6 ± 7.3%
Time-course of Changes of the Diameter of the Artery (basilar artery; 100 μg/kg, 120 minutes): 25.5 ± 7.9%
Time-course of Changes of Blood Flow (vertebral artery of dog; 32 μg/kg, iv, 5 minutes): 109.6 ± 18.3%
Time-course of Changes of Blood Flow (vertebral artery of dog; 32 μg/kg, iv, 10 minutes): 96.7 ± 16.2%
Time-course of Changes of Blood Flow (vertebral artery of dog; 32 μg/kg, iv, 20 minutes): 81.3 ± 15.5%
Time-course of Changes of Blood Flow (vertebral artery of dog; 32 μg/kg, iv, 30 minutes): 77.7 ± 12.5%
Time-course of Changes of Blood Flow (vertebral artery of dog; 32 μg/kg, iv, 60 minutes): 71.2 ± 17.5%
Time-course of Changes of Blood Flow (vertebral artery of dog; 32 μg/kg, iv, 90 minutes): 61.4 ± 25.7%
Time-course of Changes of Blood Flow (vertebral artery of dog; 32 μg/kg, iv, 120 minutes): 52.1 ± 23.1%
Time-course of Changes of Blood Flow (vertebral artery of dog; 32 μg/kg, iv, 180 minutes): 31.0 ± 15.7%
Maximum Changes of Blood Flow (vertebral artery of dog; id, 10 μg/kg): 17.2 ± 6.0%
Maximum Changes of Blood Flow (vertebral artery of dog; id, 32 μg/kg): 39.7 ± 13.1%
Maximum Changes of Blood Flow (vertebral artery of dog; id, 100 μg/kg): 89.3 ± 11.5%
Maximum Changes of Blood Flow (vertebral artery of dog; iv, 3.2 μg/kg): 39.2 ± 7.2%
Maximum Changes of Blood Flow (vertebral artery of dog; iv, 10 μg/kg): 86.4 ± 20.6%
Maximum Changes of Blood Flow (vertebral artery of dog; iv, 32 μg/kg): 109.6 ± 18.3%
Increase in Blood Flow (Time-course of Vasodilation in Cortex of Occlusion Side) ([2]; 15 minutes): 17.8 ± 2.4%
Increase in Blood Flow (Time-course of Vasodilation in Cortex of Occlusion Side) ([2]; 30 minutes): 27.4 ± 3.7%
Increase in Blood Flow (Time-course of Vasodilation in Cortex of Occlusion Side) ([2]; 45 minutes): 32.6 ± 4.6%
Increase in Blood Flow (Time-course of Vasodilation in Cortex of Occlusion Side) ([2]; 60 minutes): 28.3 ± 2.5%
Increase in Blood Flow (Time-course of Vasodilation in Cortex of Occlusion Side) ([2]; 90 minutes): 21.6 ± 6.4%
Increase in Blood Flow (Time-course of Vasodilation in Cortex of Occlusion Side) ([2]; 120 minutes): 17.5 ± 7.3%
Maximum Increase in Blood Flow ([2]; Non-occlusion side, 0.1 mg/kg): 13.6 ± 1.7%
Maximum Increase in Blood Flow ([2]; Non-occlusion side, 1.0 mg/kg): 26.1 ± 4.8%
Maximum Increase in Blood Flow ([2]; Occlusion side, 0.1 mg/kg): 12.6 ± 3.1%
Maximum Increase in Blood Flow ([2]; Occlusion side, 1.0 mg/kg): 32.6 ± 4.6%
Inhibition of Production of Lipid Peroxide ([3]; 2.6 × 10^-4 (M)): 100.0%
Inhibition of Production of Lipid Peroxide ([3]; 2.6 × 10^-5 (M)): 96.94 ± 1.03%

EC50 [1]: 0.7 ± 0.07 nM
Compound: COC(=O)C1=C(C)NC(C)=C(C(=O)OCCN(C)Cc2ccccc2)C1c1cccc([N+](=O)[O-])c1 (stereo not drawn) [Nicardipine, reference compound]
ATP (ischemic brain; vehicle 1.97 ± 0.06, normal rat 2.38 ± 0.13): 1.92 ± 0.11 μmol/brain 1 g
Lactic acid (ischemic brain; vehicle 3.84 ± 0.28, normal rat 1.83 ± 0.18): 3.84 ± 0.14 μmol/brain 1 g
Time-course of Changes of Blood Flow (vertebral artery of dog; 32 μg/kg, iv, 5 minutes): 91.7 ± 14.8%
Time-course of Changes of Blood Flow (vertebral artery of dog; 32 μg/kg, iv, 10 minutes): 73.4 ± 15.2%
Time-course of Changes of Blood Flow (vertebral artery of dog; 32 μg/kg, iv, 20 minutes): 48.1 ± 13.2%
Time-course of Changes of Blood Flow (vertebral artery of dog; 32 μg/kg, iv, 30 minutes): 37.0 ± 10.4%
Time-course of Changes of Blood Flow (vertebral artery of dog; 32 μg/kg, iv, 60 minutes): 23.0 ± 17.7%
Time-course of Changes of Blood Flow (vertebral artery of dog; 32 μg/kg, iv, 90 minutes): 8.2 ± 10.8%
Time-course of Changes of Blood Flow (vertebral artery of dog; 32 μg/kg, iv, 120 minutes): -0.5 ± 8.9%
Maximum Changes of Blood Flow (vertebral artery of dog; id, 320 μg/kg): 33.7 ± 14.3%
Maximum Changes of Blood Flow (vertebral artery of dog; id, 1000 μg/kg): 56.0 ± 28.5%
Maximum Changes of Blood Flow (vertebral artery of dog; id, 3200 μg/kg): 131.3 ± 36.0%
Maximum Changes of Blood Flow (vertebral artery of dog; iv, 3.2 μg/kg): 31.4 ± 5.2%
Maximum Changes of Blood Flow (vertebral artery of dog; iv, 10 μg/kg): 77.8 ± 17.4%
Maximum Changes of Blood Flow (vertebral artery of dog; iv, 32 μg/kg): 91.7 ± 14.8%
Increase in Blood Flow (Time-course of Vasodilation in Cortex of Occlusion Side) ([2]; 15 minutes): 6.2 ± 1.8%
Increase in Blood Flow (Time-course of Vasodilation in Cortex of Occlusion Side) ([2]; 30 minutes): 13.4 ± 2.8%
Increase in Blood Flow (Time-course of Vasodilation in Cortex of Occlusion Side) ([2]; 45 minutes): 15.9 ± 2.5%
Increase in Blood Flow (Time-course of Vasodilation in Cortex of Occlusion Side) ([2]; 60 minutes): 11.6 ± 2.9%
Increase in Blood Flow (Time-course of Vasodilation in Cortex of Occlusion Side) ([2]; 90 minutes): 8.8 ± 4.2%
Increase in Blood Flow (Time-course of Vasodilation in Cortex of Occlusion Side) ([2]; 120 minutes): 9.1 ± 5.3%
Maximum Increase in Blood Flow ([2]; Non-occlusion side, 0.1 mg/kg): 8.9 ± 3.2%
Maximum Increase in Blood Flow ([2]; Non-occlusion side, 1.0 mg/kg): 20.5 ± 5.1%
Maximum Increase in Blood Flow ([2]; Occlusion side, 0.1 mg/kg): 6.4 ± 1.3%
Maximum Increase in Blood Flow ([2]; Occlusion side, 1.0 mg/kg): 15.9 ± 2.5%
duration of improving activity of cerebral circulation (cerebral circulation): short
improving activity of cerebral circulation (cerebral circulation): have improving activity of cerebral circulation

Compound: COCCOC(=O)C1=C(C)NC(C)=C(C(=O)OC(C)C)C1c1cccc([N+](=O)[O-])c1 (stereo not drawn) [nimodipine]
brain ATP content after reperfusion ([4]; after reperfusion): improves
electroencephalogram after reperfusion ([4]; after reperfusion): improves
electroencephalogram and brain ATP content during ischemia ([4]; during ischemia): not improve them during ischemia
liberation of free fatty acids ([4]; same model): no effect
improving activity of cerebral circulation (cerebral circulation): have improving activity of cerebral circulation
